The values below come from PMC3715890, “A Cyclic Peptide Inhibitor of HIF-1 Heterodimerization That Inhibits Hypoxia Signaling in Cancer Cells” (Journal of the American Chemical Society, 2013).

For experiment [1], the system named is VEGF mRNA in hypoxic MCF-7 cells. Description: VEGF mRNA qPCR, MCF-7. The following applies: MCF-7, hypoxia 16 h, 100 μM. The experiment is classed as cell-based. The method, then:
(§1) Cells were treated with the stated concentrations of inhibitor (P1, P2, or P3) and incubated in normoxia for 4 h, followed by incubation in a hypoxic environment. All manipulation of cell pellets (e.g., lysis, mRNA, and protein extraction) was conducted in a hypoxic environment.
(§2) Total RNA was extracted from MCF-7 and U2OS cells using RNeasy Mini Kit (74104, QIAGEN) and quantified using a Nanodrop ND-1000 spectrophotometer. Complementary DNA was synthesized in a 20 μL reaction containing 1 μg of total RNA, using qScript cDNA SuperMix (95048-100, Quanta Biosciences) according to the manufacturer’s instructions. Quantitative real-time PCRs were performed using Universal Taqman PCR master mix (Applied Biosystems) >and the Taqman gene expression assay of interest (Applied Biosystems) on an ABI StepOnePlus Real-Time PCR system (Applied Biosystems). Expression assays used in this study were HIF-1α (00936376_m1), VEGF-A (Hs00173626_m1), CAIX (Hs00154208_m1), LOX (Hs00942480_m1), HIF2α (Hs01026149_m1), CITED2 (Hs01897804_s1), and 18S (Hs99999901_m1). All expression values were normalized using expression of 18S.
(In general: In qPCR the cycle at which signal appears reflects the starting amount.)

The subject of experiment [2] is tubule formation in hypoxic human umbilical vein endothelial cells (HUVEC). The experiment in a line: HUVEC tubularization. It is filed as cell-based. The following applies: 250 μM.
The test system of experiment [3] is CAIX mRNA in hypoxic MCF-7 cells. Description: CAIX mRNA qPCR, MCF-7. The following applies: MCF-7, hypoxia, 100 μM. The experiment is classed as cell-based. How it is done:
as §1, §2

Experiment [4] relates to VEGF mRNA in hypoxic U2OS cells. The experiment in a line: VEGF mRNA qPCR, U2OS. The experiment is classed as cell-based, human. Particulars: hypoxia 16 h, 100 μM. The method, then: as §1, §2
Experiment [5] concerns U2OS-luc control cell line stably expressing luciferase. Description: Control constitutive luciferase reporter, U2OS-luc. It is filed as cell-based, human. An excerpt: Figure S3: Identification of cyclic peptide HIF-1 inhibitors. (A) SICLOPPS expression is induced by arabinose, which processes to give a member of the cyclic peptide library. A dimerization inhibitor would be expected to rescue growth of the HIF-1 RTHS on selective media plates containing IPTG, kanamycin and 3-amino-triazole, and arabinose. (B) The ability of the selected cyclic peptides to […]
HIF-1 RTHS containing the corresponding SICLOPPS plasmid onto selective media. In the absence of arabinose the SICLOPPS split-intein is not produced; the HIF-1 RTHS containing plasmids encoding […]
colonies show survival on selective media plates containing IPTG and arabinose (panel 2). Expressing the 3 selected cyclic peptides from mutant SICLOPPS inteins (H24A, F26A mutations in the C- […]
cyclic form of the peptides and their activity. […]
expressing a constitutive luciferase reporter construct. […]
Background: Reporter assays use an easily measured gene product as a stand-in for the process of interest.

“Tat-cyclo-CRLMVL (head to tail) [P2, cyclo-CRLMVL tagged with Tat peptide via a disulfide bond; used as negative control]”: the “VEGF mRNA” value in experiment [1] and in experiment [4] was “had no effect” throughout. In addition, the “HUVEC tubularization / tubule length” value in experiment [2] is recorded as “has no effect”. The “CAIX mRNA” value in experiment [3] is “no effect”. In addition, the “effect on constitutive luciferase signal” value in experiment [5] was “do not affect”.
